Measurements reported in patent publication US20180371408A1, “CELL CULTURES AND METHODS OF USE” (priority 2017, published 2018).
Values joined by “and” are separate entries in the source; they are usually repeats but may differ in a detail not shown here. Equal entries are not always repeated. Where two headings read alike, the source gives them in different places.

How the values were obtained:
[1] = system: testicular co-culture: spermatogonial cells (C18-4), Sertoli cells (TM4), Leydig cells (TM3); conditions: for concentration with statistically significant decrease in viability (p<0.05): 48 h exposure
[2] = system: reproductive system; conditions: cited from earlier work
[3] = system: Sertoli cells (TM4); experiment: cells; assay type: cell-based, mouse
[4] = system: Spermatogonial cells (C18-4); experiment: cells; assay type: cell-based, mouse
[5] = system: Leydig cells (TM3); experiment: cells; assay type: cell-based, mouse
[6] = system: testicular co-culture: spermatogonial cells (C18-4), Sertoli cells (TM4), Leydig cells (TM3); experiment: cells; conditions: Mus musculus
[7] = system: reproductive system; conditions: cited from earlier work; remark: listed apart in the source
[8] = system: testicular co-culture (spermatogonial, Sertoli, Leydig cells); experiment: Multi-parametric high-content assay of the co-culture treated with cadmium; assay type: cell-based, mouse; conditions: 0.05, 0.25, 0.50 and 1.0 μM for 48 h
Description: All cultures were viewed with an Olympus inverted microscope equipped with phase-contrast optics (Olympus, Tokyo, Japan) at intervals during the culture to assess their general appearance. Images were captured and digitized with a Nikon Camera. To further examine the morphology of the cultured cells, a multi-parametric high-content analysis (HCA) was applied to quantify the F-actin cytoskeleton, nuclear shape, and cell proliferation. The spermatogonial cells were identified using typical markers of mouse germ cell nuclear antigen (GCNA1) (Developmental Studies Hybridoma Bank, http://dshb.biology.uiowa.edu, Iowa, IA)(Enders and May, 1994). Leydig cells were identified using steroidogenic acute regulatory protein (StAR)(Clark et al., 1994) (kindly gifted by Dr. Douglas M. Stocco, Texas Tech University). Sertoli cells were stained with SOX9 (Developmental Studies Hybridoma Bank, Iowa, IA). After culture for 48 and 72 h, cells were washed with phosphate buffered saline (PBS), fixed with 4% formaldehyde for 20 min at room temperature, and then washed with PBS three times. […] The multichannel images were automatically captured using an Arrayscan VTI HCS reader with a Studio 2.0 Target Activation BioApplication module (Thermo Scientific, MA). […]
Single-cell based High-content Analysis (HCA) provided multi-parameter phenotypic profiling characterization, including number, nuclear area, shape, and intensity, as previously reported (Liang et al., 2017). […] With 36 fields of each well, at least 4000 cells were analyzed per well, and single-cell based data for each channel were exported for further statistical analysis. […]
For quantitative analysis of three-dimensional F-actin cytoskeleton, we applied the Cytoskeletal Re-arrangement Assay in the Morphology Explorer Bioapplication (ThermoScientific, MA) to determine the number, dimensions and alignment—as well as the texture—of actin fibers based on the manufacturer's guideline (ThermoFisher, 2010). […]

[9] = co-culture, 48 h treatment, FIG. 6
[10] = Mus musculus, 24 h, read-out: IC50
[11] = Mus musculus, 48 h, read-out: IC50
[12] = Mus musculus, Leydig, 24 h, read-out: IC50
[13] = Mus musculus, Leydig, 48 h, read-out: IC50
[14] = based on ToxCast database and literature search
[15] = Spermatogonial Cell, 48 h, highest concentration tested assigned as IC50 where viability did not decrease 50%, read-out: IC50
[16] = Leydig Cell, 48 h, highest concentration tested assigned as IC50 where viability did not decrease 50%, read-out: IC50
[17] = Co-culture, 24 h, highest concentration tested assigned as IC50 where viability did not decrease 50%
[18] = Co-culture, 48 h, highest concentration tested assigned as IC50 where viability did not decrease 50%
[19] = Sertoli Cell, 24 h, highest concentration tested assigned as IC50 where viability did not decrease 50%, read-out: IC50
[20] = Sertoli Cell, 48 h, highest concentration tested assigned as IC50 where viability did not decrease 50%, read-out: IC50
[21] = Spermatogonial Cell, 24 h, highest concentration tested assigned as IC50 where viability did not decrease 50%, read-out: IC50
[22] = Leydig Cell, 24 h, highest concentration tested assigned as IC50 where viability did not decrease 50%, read-out: IC50

Compound | effect on cell viability (NR uptake), in words [1, 9] | IC50 ([6]; 24 h) [µM] | IC50 ([6]; 48 h) [µM] | IC50 [3, 10] [µM] | IC50 [3, 11] [µM] | IC50 [4, 10] [µM] | IC50 [4, 11] [µM] | IC50 [5, 12] [µM] | IC50 [5, 13] [µM] | In vivo Reproductive Toxicity [2, 14] | also measured
COC(=O)c1ccccc1C(=O)OC [DMP] | no or slight decrease of cell viability |  |  |  |  |  |  |  |  |  | developmental toxicity of phthalates (literature) ([2]; in vivo): developmental non-toxic
OB(O)O [BA, Boric acid] |  | > 5000 | > 5000 |  |  |  |  |  |  |  | IC50 ([3]; Mus musculus, 24 h): > 5000 µM; IC50 ([3]; Mus musculus, 48 h): > 5000 µM; IC50 ([4]; Mus musculus, 24 h): > 5000 µM; IC50 ([4]; Mus musculus, 48 h): 3580 µM; IC50 ([5]; Mus musculus, Leydig, 24 h): > 5000 µM; IC50 ([5]; Mus musculus, Leydig, 48 h): > 5000 µM; effect on cell viability (NR uptake), in words [1]: statistically significant decreases in cell viability; in vitro call as reproductive toxicant [1]: negative; In vivo Reproductive Toxicity ([2]; in vivo): +; call in in vivo models ([2]; in vivo): positive
CCOP(=S)(OCC)Oc1nc(Cl)c(Cl)cc1Cl [CHL, chlorpyrifos] | significant dose-dependent decrease of cell viability | 91.5 | 89 | 212 | 120 | 118 | 96 | 142 | 120 | + | IC50 ([6]; read-out: IC50 values (mostly)): ≤ 100 µM
CCCCCOC(=O)c1ccccc1C(=O)OCCCCC [DPP] | dose-dependent decrease of cell viability |  |  |  |  |  |  |  |  |  | IC50 [4, 15]: 372 µM; IC50 [5, 16]: 244 µM; IC50 [1, 17]: 550 µM; IC50 [1, 18]: 352 µM
Oc1cc(Cl)ccc1Oc1ccc(Cl)cc1Cl [TCS] | significant dose-dependent decrease of cell viability |  |  |  |  |  |  |  |  |  | IC50 [3, 19]: 81 µM; IC50 [3, 20]: 72.7 µM; IC50 [4, 21]: 62.7 µM; IC50 [4, 15]: 57.3 µM; IC50 [5, 22]: 135 µM; IC50 [5, 16]: 80 µM; IC50 [1, 17]: 121 µM; IC50 [1, 18]: 76.5 µM
O=C1NS(=O)(=O)c2ccccc21 [SAC] | did not cause a significant decrease in cell viability |  |  |  |  |  |  |  |  |  | 
CCCCOC(=O)c1ccccc1C(=O)OCCCC [DBP, Dibutyl phthalate] | dose-dependent decrease of cell viability | 437 | 388 | ≥ 400 | ≥ 400 | ≥ 400 | 371 | ≥ 400 | ≥ 400 | + | concentration with statistically significant decrease in viability (p<0.05) ([1]; co-culture, FIG. 6): 200 µM
O=C(c1ccc2c(c1)C(=O)OC2=O)c1ccc2c(c1)C(=O)OC2=O [BEN, Benzophenone-3,3′,4,4′-tetracarboxylic dianhydride] | significant dose-dependent decrease of cell viability |  |  |  |  |  |  |  |  | + | 
CC/C(=C(/CC)c1ccc(O)cc1)c1ccc(O)cc1 [DES, Diethylstilbestrol] |  |  |  |  |  |  |  |  |  | + | reproductive LOAEL ([7]; in rats): 10 mg/kg/day
TCEP | statistically significant decreases in cell viability |  |  |  |  |  |  |  |  |  | IC50 [4, 21]: 5110 µM; IC50 [4, 15]: 3680 µM
CCCC(CCC)C(=O)[O-].[Na+] [VPA, Valproic acid sodium salt] | statistically significant decreases in cell viability | > 20000 | 8850 | > 20000 | 7610 | > 20000 | 6000 | > 20000 | 9480 | + | 
CCOC(=O)c1ccccc1C(=O)OCC [DEP, Diethylphthalate] | no or slight decrease of cell viability | > 400 | > 400 | > 400 | > 400 | > 400 | > 400 | > 400 | > 400 | − | developmental toxicity of phthalates (literature) ([2]; in vivo): developmental non-toxic
C[C@H]1CCCC(=O)CCC/C=C/c2cc(O)cc(O)c2C(=O)O1 [ZEA, Zearalenone] |  | 7.2 | 4.1 | 3.1 | 2.5 | 3.8 | 2 | 3.4 | 2.5 | + | reproductive LOAEL ([7]; in rats): 1 mg/kg/day; IC50 ([6]; read-out: IC50 values (mostly)): ≤ 100 µM
O=P1(N(CCCl)CCCl)NCCCO1 (stereo not drawn) [CYC, Cyclophosphamide] |  | > 5000 | > 5000 |  |  |  |  |  |  |  | IC50 ([3]; Mus musculus, 24 h): > 5000 µM; IC50 ([3]; Mus musculus, 48 h): > 5000 µM; IC50 ([4]; Mus musculus, 24 h): > 5000 µM; IC50 ([4]; Mus musculus, 48 h): > 5000 µM; IC50 ([5]; Mus musculus, Leydig, 24 h): > 5000 µM; IC50 ([5]; Mus musculus, Leydig, 48 h): > 5000 µM; effect on cell viability (NR uptake), in words [1]: did not cause a significant decrease in cell viability; in vitro call as reproductive toxicant [1]: negative; In vivo Reproductive Toxicity ([2]; in vivo): +; call in in vivo models ([2]; in vivo): positive
[Cl][Cd][Cl] [Cd, Cadmium chloride] | most toxic |  |  |  |  |  |  |  |  | + | IC50 [3, 19]: 14.6 µM; IC50 [3, 20]: 9.5 µM; IC50 [4, 21]: 2.1 µM; IC50 [4, 15]: 2.1 µM; F-actin cytoskeletal structure [8]: destruction of cytoskeletal structure; cell proliferation (cell number) [8]: decrease of cell proliferation (cell number); γH2AX foci formation ([8]; dose-dependent): significantly induced phosphorylation of γH2AX foci formation; IC50 [5, 22]: 16 µM; IC50 [5, 16]: 8.5 µM; reproductive LOAEL ([7]; in rats): 0.088 mg/kg/day; IC50 [1, 17]: 11.3 µM; IC50 [1, 18]: 4.2 µM
CCCCOC(=O)c1ccccc1C(=O)OCc1ccccc1 [BBP, Benzyl butyl phthalate] | dose-dependent decrease of cell viability | 885 | 539 | ≥ 400 | ≥ 400 | ≥ 400 | ≥ 400 | ≥ 400 | ≥ 400 | + | concentration with statistically significant decrease in viability (p<0.05) ([1]; co-culture, FIG. 6): 200 µM
NC(=O)NO [HU] | statistically significant decreases in cell viability |  |  |  |  |  |  |  |  |  | IC50 [3, 19]: 396 µM; IC50 [3, 20]: 150 µM; IC50 [4, 15]: 300 µM; IC50 [5, 22]: 600 µM; IC50 [5, 16]: 200 µM; IC50 [1, 18]: 200 µM
Sodium arsenite [As] |  |  |  |  |  |  |  |  |  |  | IC50 ([3]; read-out: IC50): 12 µM and 6.9 µM; IC50 ([4]; read-out: IC50): 6.9 µM and 6.8 µM; IC50 ([5]; read-out: IC50): 20.3 µM and 16.1 µM; reproductive LOAEL ([7]; rat, in vivo): 8 mg/kg/day; IC50 [1]: 15 µM and 10 µM; effect on cell viability (NR uptake), in words [1]: most toxic; In vivo Reproductive Toxicity ([2]; in vivo): +
